Our source for the IC50 values is patent publication EP1032559B1 (priority 1997, dated 1999).

Structures are written as SMILES. Where a name gives a salt, the structure may show the parent alone.

One test addresses T1, acetylcholinesterase (Rattus norvegicus, UniProt P37136).
T1 construct: corpora striata dissected free, weighted and homogenized in 19 volumes; from tissue; host or cells: rat brain corpora striata, crude homogenate
T1 sequence (P37136 32-614): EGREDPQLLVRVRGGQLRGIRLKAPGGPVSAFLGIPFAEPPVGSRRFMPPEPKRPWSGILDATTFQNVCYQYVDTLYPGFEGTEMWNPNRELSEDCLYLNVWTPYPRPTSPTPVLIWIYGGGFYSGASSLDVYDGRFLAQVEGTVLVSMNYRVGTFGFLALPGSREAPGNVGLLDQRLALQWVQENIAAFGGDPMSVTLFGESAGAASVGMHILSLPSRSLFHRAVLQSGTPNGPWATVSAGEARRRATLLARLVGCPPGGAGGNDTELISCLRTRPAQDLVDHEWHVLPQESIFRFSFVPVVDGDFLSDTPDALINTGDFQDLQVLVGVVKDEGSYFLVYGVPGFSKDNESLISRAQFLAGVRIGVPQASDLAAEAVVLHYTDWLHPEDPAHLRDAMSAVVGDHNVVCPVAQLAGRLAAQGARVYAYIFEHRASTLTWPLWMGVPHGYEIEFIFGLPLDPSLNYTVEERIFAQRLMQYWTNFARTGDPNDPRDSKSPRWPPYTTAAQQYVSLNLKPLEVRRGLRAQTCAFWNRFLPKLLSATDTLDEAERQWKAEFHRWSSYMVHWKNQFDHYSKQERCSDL
Put plainly: biochemical. Set-up: species or system Male Wistar rats.

The target in the next test is clonidine: α2-receptor. Put plainly: in vitro clonidine binding: α2-receptor assay. Details: species or system Male Wistar rats. The conditions noted are these: rat cortical tissue homogenate; 3 nM 3H-clonidine; 20 minutes at 25° C; log-probit analysis; read-out: Inhibition of clonidine binding activity IC50.

Description for acetylcholinesterase: 0.05M Phosphate Buffer (pH 7.2)
A solution of monobasic sodium phosphate monohydrate (6.85 g) in distilled water (100 ml) is added to a solution of dibasic sodium phosphate heptahydrate (13.4 g) and distilled water (100 ml) until a pH of 7.2 was attained. The solution was diluted 1 to 10 with distilled water.
5,5-Dithiobisnitrobenzoic acid in Buffer
The 0.05M Phosphate Buffer (pH 7.2) was added to 5.5-dithiobisnitrobenzoic acid to a total volume of 100 ml, i.e., a quantity sufficient (gs) to 100 ml.
A 2 millimolar stock solution of the test drug is prepared in a quantity sufficient of either acetic acid or dimethyl sulfoxide to volume with 5,5-dithiobisnitrobenzoic acid in Buffer. […]
Male Wistar rats are decapitated, brains rapidly removed, corpora striata dissected free, weighted and homogenized in 19 volumes (approximately 7 mg protein/ml) of 0.05M Phosphate Buffer (pH 7.2) using a Potter-Elvejhem homogenizer. […] Enzyme activity is measured with a Beckman DU-50 spectrophotometer with the following software and instrument settings: • 1. […]
Blank values are determined for each run to control for non-enzymatic hydrolysis of substrate and these values are automatically subtracted by the Kindata program available on kinetics soft-pac module. This program also calculates the rate of absorbance change for each cuvette. […]
IC50 values are calculated from log-probit analysis

The IC50 is the concentration that gives 50% inhibition. `C#CCOc1cc(CN2CCN(c3ccccn3)CC2)ccc1OC` [4-Methoxy-3-(propargyloxy)-1-[[4-(pyridin-2-yl)piperazin-1-yl]methyl] benzene hydrochloride monohydrate]: the results for the IC50 at acetylcholinesterase and at clonidine: α2-receptor were 26.9 µM and 34.6 nM, respectively.
At acetylcholinesterase, `C#CCOc1cc(CN2CCCC2)ccc1OC(=O)NC` [reference compound] registered an IC50 of 0.0036 µM.
